Measurements as given in ChEMBL document CHEMBL5678816, “A Next-Generation TRK Kinase Inhibitor Overcomes Acquired Resistance to Prior TRK Kinase Inhibition in Patients with TRK Fusion-Positive Solid Tumors” (Cancer Discov, 2017).
Activity calls are given as the source filed them. No cut-off for these calls is given here.

Assays:
[1] = AUC in pediatric patient with recurrent ETV6-NTRK3-rearranged infantile fibrosarcoma at 100 mg administered twice a day as liquid formulation for 29 day by LC-MS/MS analysis; format: ADME; settings: human, in vivo
[2] = biological target: SRSF protein kinase 2 (Homo sapiens) (UniProt P78362); test: Inhibition of SRPK2 (unknown origin) at 1 uM in presence of ATP relative to control; values are per cent of control
[3] = biological target: Mitogen-activated protein kinase kinase kinase 9 (Homo sapiens) (UniProt P80192); test: Inhibition of MLK1 (unknown origin) at 1 uM in presence of ATP relative to control; values are per cent of control
Mitogen-activated protein kinase kinase kinase 9 (Homo sapiens), sequence (P80192 whole entry, looked up): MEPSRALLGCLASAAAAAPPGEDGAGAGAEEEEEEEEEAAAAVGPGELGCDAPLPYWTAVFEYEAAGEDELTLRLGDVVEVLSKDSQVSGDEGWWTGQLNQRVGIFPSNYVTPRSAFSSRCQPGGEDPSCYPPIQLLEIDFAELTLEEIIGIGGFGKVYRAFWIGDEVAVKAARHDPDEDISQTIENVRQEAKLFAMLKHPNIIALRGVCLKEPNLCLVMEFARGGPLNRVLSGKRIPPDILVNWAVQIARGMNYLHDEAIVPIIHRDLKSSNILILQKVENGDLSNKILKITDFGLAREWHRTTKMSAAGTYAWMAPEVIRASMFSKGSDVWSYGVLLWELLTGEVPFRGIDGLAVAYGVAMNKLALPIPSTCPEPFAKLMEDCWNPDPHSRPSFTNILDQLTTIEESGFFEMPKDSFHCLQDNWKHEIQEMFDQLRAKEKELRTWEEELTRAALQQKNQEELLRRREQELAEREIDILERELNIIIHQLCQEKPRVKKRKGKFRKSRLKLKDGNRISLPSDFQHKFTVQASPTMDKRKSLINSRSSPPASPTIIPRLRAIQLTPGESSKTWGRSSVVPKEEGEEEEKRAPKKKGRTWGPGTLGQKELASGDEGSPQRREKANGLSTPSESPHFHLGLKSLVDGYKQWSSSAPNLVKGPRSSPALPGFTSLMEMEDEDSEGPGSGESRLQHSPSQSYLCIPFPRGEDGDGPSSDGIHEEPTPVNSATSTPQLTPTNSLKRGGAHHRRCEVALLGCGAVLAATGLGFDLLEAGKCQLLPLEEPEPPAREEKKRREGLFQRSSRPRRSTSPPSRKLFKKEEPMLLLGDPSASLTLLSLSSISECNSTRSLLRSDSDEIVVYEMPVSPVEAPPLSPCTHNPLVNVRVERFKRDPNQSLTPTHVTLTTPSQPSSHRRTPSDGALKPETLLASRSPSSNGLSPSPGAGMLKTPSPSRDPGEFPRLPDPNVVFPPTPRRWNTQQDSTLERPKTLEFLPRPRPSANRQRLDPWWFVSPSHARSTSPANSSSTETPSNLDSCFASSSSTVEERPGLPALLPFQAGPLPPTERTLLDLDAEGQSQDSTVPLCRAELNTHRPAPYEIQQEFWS

[4] = biological target: Calcium/calmodulin-dependent protein kinase type 1 (Homo sapiens) (UniProt Q14012); test: Inhibition of CAMK1 (unknown origin) at 1 uM in presence of ATP relative to control; values are per cent of control
Calcium/calmodulin-dependent protein kinase type 1 (Homo sapiens), sequence (Q14012 whole entry, looked up): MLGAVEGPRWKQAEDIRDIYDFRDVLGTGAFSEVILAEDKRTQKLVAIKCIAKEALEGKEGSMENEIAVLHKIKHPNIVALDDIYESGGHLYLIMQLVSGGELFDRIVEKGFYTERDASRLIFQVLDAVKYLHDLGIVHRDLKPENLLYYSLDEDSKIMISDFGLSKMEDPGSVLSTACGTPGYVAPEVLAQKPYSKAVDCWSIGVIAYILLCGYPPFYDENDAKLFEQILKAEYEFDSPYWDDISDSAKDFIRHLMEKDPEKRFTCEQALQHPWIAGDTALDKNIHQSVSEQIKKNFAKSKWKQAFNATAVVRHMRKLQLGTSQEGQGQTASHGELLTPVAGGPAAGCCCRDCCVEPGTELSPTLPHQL

[5] = Clearance in mouse at 1 mg/kg, iv administered as 20% hydroxypropyl-beta-cyclodextrin formulation by LC-MS analysis; format: ADME, organism-based; settings: in vivo
[6] = Cmax in adult patient with recurrent LMNA-NTRK1 rearranged colorectal cancer at 100 mg administered twice a day as powder-in-capsule or liquid formulation for 15 days by LC-MS/MS analysis; format: ADME; settings: human, in vivo, po, time 15 day
[7] = biological target: Serine/threonine-protein kinase PAK 6 (Homo sapiens) (UniProt Q9NQU5); test: Inhibition of PAK6 (unknown origin) at 1 uM in presence of ATP relative to control; values are per cent of control
Serine/threonine-protein kinase PAK 6 (Homo sapiens), sequence (Q9NQU5 whole entry, looked up): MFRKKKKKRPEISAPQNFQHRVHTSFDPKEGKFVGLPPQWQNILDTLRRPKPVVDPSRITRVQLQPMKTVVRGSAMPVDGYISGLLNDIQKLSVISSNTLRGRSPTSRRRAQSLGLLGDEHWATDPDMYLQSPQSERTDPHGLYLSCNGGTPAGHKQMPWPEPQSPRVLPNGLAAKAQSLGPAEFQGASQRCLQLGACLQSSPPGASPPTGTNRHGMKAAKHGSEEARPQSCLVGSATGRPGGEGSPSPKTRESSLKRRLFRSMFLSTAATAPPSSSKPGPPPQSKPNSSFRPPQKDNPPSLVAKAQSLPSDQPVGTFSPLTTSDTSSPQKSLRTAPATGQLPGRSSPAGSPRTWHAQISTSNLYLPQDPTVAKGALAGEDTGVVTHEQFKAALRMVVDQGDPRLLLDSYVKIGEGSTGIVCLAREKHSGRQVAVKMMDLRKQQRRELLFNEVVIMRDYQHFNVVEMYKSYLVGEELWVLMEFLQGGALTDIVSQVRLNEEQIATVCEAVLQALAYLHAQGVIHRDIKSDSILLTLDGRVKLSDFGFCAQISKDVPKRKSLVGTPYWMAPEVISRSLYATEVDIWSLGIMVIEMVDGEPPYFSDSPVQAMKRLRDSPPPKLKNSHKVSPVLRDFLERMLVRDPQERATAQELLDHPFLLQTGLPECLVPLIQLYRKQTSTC

[8] = biological target: Tyrosine-protein kinase Fes/Fps (Homo sapiens) (UniProt P07332); test: Inhibition of Fes (unknown origin) at 1 uM in presence of ATP relative to control; values are per cent of control
Tyrosine-protein kinase Fes/Fps (Homo sapiens), sequence (P07332 whole entry): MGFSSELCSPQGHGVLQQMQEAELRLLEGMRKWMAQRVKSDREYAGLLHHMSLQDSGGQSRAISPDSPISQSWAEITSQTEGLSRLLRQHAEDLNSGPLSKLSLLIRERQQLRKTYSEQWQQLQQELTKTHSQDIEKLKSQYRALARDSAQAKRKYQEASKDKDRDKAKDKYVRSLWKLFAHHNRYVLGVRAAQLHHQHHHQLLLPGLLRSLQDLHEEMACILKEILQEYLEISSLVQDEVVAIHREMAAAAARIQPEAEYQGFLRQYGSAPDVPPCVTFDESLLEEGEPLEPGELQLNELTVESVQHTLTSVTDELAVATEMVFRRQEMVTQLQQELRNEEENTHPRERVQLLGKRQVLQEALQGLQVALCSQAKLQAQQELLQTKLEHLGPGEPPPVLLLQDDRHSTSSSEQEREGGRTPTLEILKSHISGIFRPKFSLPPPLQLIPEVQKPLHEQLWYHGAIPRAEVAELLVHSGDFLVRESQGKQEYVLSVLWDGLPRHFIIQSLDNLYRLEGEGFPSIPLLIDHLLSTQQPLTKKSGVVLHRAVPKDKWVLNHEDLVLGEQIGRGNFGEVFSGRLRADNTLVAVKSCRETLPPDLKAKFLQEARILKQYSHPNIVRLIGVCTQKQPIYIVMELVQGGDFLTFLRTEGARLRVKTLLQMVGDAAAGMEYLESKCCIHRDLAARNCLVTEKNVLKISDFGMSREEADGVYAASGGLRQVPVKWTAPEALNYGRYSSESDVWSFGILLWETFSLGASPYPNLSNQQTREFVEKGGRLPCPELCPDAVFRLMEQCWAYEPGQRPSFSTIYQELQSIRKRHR

[9] = Oral bioavailability in dog at 10 mg/kg administered as 0.5% carboxymethylcellulose 0.02% sodium dodecyl sulfate formulation by LC-MS analysis; format: ADME, organism-based, Canis lupus familiaris; settings: in vivo
[10] = biological target: RAF proto-oncogene serine/threonine-protein kinase (Homo sapiens) (UniProt P04049); test: Inhibition of C-RAF (unknown origin) at 1 uM in presence of ATP relative to control; values are per cent of control
SHP77 = test: Inhibition of cell proliferation in human SHP77 cells upto 10 umol/L incubated for 72 hrs by DAPI staining based analysis; format: functional; settings: dose <= 10.0 µmol/L
[11] = biological target: Inhibitor of nuclear factor kappa-B kinase subunit alpha (Homo sapiens) (UniProt O15111); test: Inhibition of IKKalpha (unknown origin) at 1 uM in presence of ATP relative to control; values are per cent of control
[12] = biological target: MAP kinase-activated protein kinase 3 (Homo sapiens) (UniProt Q16644); test: Inhibition of MAPKAP-K3 (unknown origin) at 1 uM in presence of ATP relative to control; values are per cent of control
MAP kinase-activated protein kinase 3 (Homo sapiens), sequence (Q16644 whole entry, looked up): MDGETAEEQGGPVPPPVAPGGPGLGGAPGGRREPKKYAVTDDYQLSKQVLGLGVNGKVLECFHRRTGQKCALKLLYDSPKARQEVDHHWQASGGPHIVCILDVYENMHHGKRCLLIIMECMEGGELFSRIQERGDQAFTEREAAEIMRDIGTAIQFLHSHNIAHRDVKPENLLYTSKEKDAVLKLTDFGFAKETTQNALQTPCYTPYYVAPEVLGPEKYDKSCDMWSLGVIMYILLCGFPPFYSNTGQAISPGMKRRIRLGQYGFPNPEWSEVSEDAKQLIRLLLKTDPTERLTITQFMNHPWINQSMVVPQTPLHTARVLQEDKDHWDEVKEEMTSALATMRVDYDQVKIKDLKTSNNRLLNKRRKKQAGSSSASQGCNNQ

BFTC-905 = test: Inhibition of cell proliferation in human BFTC-905 cells upto 10 umol/L incubated for 72 hrs by DAPI staining based analysis; format: functional; settings: dose <= 10.0 µmol/L
K562 = test: Inhibition of cell proliferation in human K562 cells upto 10 umol/L incubated for 72 hrs by DAPI staining based analysis; format: functional; settings: dose <= 10.0 µmol/L
[13] = biological target: Protein-tyrosine kinase 6 (Homo sapiens) (UniProt Q13882); test: Inhibition of PTK6 (unknown origin) at 1 uM in presence of ATP relative to control; values are per cent of control
T47D = test: Inhibition of cell proliferation in human T47D cells upto 10 umol/L incubated for 72 hrs by DAPI staining based analysis; format: functional; settings: dose <= 10.0 µmol/L
[14] = biological target: Serine/threonine-protein kinase MARK1 (Homo sapiens) (UniProt Q9P0L2); test: Inhibition of MARK1 (unknown origin) at 1 uM in presence of ATP relative to control; values are per cent of control
Serine/threonine-protein kinase MARK1 (Homo sapiens), sequence (Q9P0L2 whole entry, looked up): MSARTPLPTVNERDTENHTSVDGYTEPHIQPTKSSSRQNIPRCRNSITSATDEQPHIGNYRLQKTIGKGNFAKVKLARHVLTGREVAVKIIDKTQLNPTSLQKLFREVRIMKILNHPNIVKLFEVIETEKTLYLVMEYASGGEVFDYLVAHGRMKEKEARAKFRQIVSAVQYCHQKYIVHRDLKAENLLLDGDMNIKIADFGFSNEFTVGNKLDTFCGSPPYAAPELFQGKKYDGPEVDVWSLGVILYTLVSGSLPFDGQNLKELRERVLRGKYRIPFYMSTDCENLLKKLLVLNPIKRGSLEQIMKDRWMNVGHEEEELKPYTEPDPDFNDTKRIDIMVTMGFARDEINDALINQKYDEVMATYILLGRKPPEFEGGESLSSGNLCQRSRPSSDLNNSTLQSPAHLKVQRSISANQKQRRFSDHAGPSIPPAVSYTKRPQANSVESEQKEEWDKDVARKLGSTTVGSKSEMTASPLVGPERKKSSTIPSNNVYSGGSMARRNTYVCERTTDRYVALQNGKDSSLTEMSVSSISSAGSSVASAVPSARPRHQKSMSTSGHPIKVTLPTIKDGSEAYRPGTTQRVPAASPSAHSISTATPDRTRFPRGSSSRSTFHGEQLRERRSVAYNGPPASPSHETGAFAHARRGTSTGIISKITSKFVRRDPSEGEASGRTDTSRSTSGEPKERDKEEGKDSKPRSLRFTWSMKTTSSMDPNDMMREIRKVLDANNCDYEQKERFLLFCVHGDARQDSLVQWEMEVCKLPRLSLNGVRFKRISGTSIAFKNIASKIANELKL

[15] = Clearance in monkey at 1 mg/kg, iv administered as 20% hydroxypropyl-beta-cyclodextrin formulation by LC-MS analysis; format: ADME, organism-based, Macaca mulatta; settings: rhesus monkey, in vivo
[16] = biological target: AMP-activated protein kinase (AMPK) alpha-1/beta-1/gamma-1 (Homo sapiens) (UniProt P54619+Q9Y478+Q13131); test: Inhibition of AMPK alpha1/beta1/gamma1 (unknown origin) at 1 uM in presence of ATP relative to control; values are per cent of control
[17] = biological target: Misshapen-like kinase 1 (Homo sapiens) (UniProt Q8N4C8); test: Inhibition of MINK (unknown origin) at 1 uM in presence of ATP relative to control; values are per cent of control
Hs-578T = test: Inhibition of cell proliferation in human Hs-578T cells upto 10 umol/L incubated for 72 hrs by DAPI staining based analysis; format: functional; settings: dose <= 10.0 µmol/L
[18] = biological target: Dual specificity mitogen-activated protein kinase kinase 1 (Homo sapiens) (UniProt Q02750); test: Inhibition of MEK1 (unknown origin) at 1 uM in presence of ATP relative to control; values are per cent of control
[19] = biological target: Rho-associated protein kinase 2 (Homo sapiens) (UniProt O75116); test: Inhibition of ROCK-II (unknown origin) at 1 uM in presence of ATP relative to control; values are per cent of control
[20] = biological target: Angiopoietin-1 receptor (Homo sapiens) (UniProt Q02763); test: Inhibition of Tie2 (unknown origin) at 1 uM in presence of ATP relative to control; values are per cent of control
[21] = biological target: Mitogen-activated protein kinase 10 (Homo sapiens) (UniProt P53779); test: Inhibition of JNK3 (unknown origin) at 1 uM in presence of ATP relative to control; values are per cent of control
[22] = biological target: Serine/threonine-protein kinase D1 (Homo sapiens) (UniProt Q15139); test: Inhibition of PKD1 (unknown origin) at 1 uM in presence of ATP relative to control; values are per cent of control
Serine/threonine-protein kinase D1 (Homo sapiens), sequence (Q15139 whole entry): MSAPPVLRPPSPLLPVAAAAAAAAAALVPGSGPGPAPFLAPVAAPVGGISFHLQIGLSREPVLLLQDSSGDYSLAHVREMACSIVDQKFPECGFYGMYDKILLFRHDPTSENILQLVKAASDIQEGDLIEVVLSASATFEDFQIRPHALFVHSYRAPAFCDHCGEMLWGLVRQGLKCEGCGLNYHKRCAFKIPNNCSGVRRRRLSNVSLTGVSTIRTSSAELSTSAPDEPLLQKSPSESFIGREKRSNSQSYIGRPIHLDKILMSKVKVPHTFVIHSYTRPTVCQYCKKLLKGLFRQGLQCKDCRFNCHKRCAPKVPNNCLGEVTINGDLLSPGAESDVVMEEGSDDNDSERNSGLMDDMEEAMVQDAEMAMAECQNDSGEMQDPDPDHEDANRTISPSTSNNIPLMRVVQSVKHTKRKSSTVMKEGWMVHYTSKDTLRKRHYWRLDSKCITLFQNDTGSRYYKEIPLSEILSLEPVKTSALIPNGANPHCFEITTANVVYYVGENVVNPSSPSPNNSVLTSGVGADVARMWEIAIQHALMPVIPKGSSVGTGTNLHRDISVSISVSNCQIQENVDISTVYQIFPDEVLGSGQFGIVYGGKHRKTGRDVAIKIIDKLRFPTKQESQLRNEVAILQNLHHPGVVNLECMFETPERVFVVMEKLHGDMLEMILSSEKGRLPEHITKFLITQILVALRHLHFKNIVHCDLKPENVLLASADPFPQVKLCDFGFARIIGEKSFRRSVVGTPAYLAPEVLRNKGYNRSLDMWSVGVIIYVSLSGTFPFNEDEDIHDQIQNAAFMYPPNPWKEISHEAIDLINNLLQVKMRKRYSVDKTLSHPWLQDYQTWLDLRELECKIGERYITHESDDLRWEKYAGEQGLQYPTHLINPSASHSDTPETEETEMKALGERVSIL

[23] = biological target: Glycogen synthase kinase-3 beta (Homo sapiens) (UniProt P49841); test: Inhibition of GSK3beta (unknown origin) at 1 uM in presence of ATP relative to control; values are per cent of control
[24] = biological target: Dual specificity protein kinase CLK3 (Homo sapiens) (UniProt P49761); test: Inhibition of CLK3 (unknown origin) at 1 uM in presence of ATP relative to control; values are per cent of control

AUC at 696 h [1]: 4410 ng·h/mL
residual activity [2]: 93.5%
residual activity [3]: 96.5%
residual activity [4]: 107%
clearance [5]: 4.83 mL/min/kg
Cmax [6]: 673 ng/mL
residual activity [7]: 99%
residual activity [8]: 99.5%
bioavailability [9]: 42%
residual activity [10]: 92.5%
residual activity [11]: 96.5%
residual activity [12]: 102%
residual activity [13]: 98.5%
residual activity [14]: 94%
clearance [15]: 23.3 mL/min/kg
residual activity [16]: 96.5%
residual activity [17]: 99.5%
residual activity [18]: 122%
residual activity [19]: 105%
residual activity [20]: 119%
residual activity [21]: 109%
residual activity [22]: 106%
residual activity [23]: 124%
residual activity [24]: 104%
SMILES: C[C@@H]1CCc2ncc(F)cc2[C@H]2CCCN2c2ccn3ncc(c3n2)C(=O)N1 [SELITRECTINIB]
inhibition (SHP77): inactive
inhibition (BFTC-905): inactive
inhibition (K562): inactive
inhibition (T47D): inactive
inhibition (Hs-578T): inactive
